According to patent US11987540B2, “Crystalline solids of 3-palmitoyl-amido-1,2-propanediol and 3-palmitoyl-amido-2-hydroxy-1-dimethoxytriphenylmethylether-propane and methods of making and using the same” (Geron Corporation, priority 2019, dated 2024):

Tests used:
[1] = Screening of the solubility in various solvents and solvent mixtures; assay type: physicochemical
Experimental: A screening of the solubility of 3-palmitoyl-amido-1,2-propanediol was conducted with various solvents and solvent mixtures. Tetrahydrofuran (THF), 2-methyl-THF, dichloromethane (DCM), N-methyl-2-pyrrolidone (NMP), dimethylacetamide (DMAc), toluene, 2-methylbutan-2-ol (tAmOH), isopropylacetate (iPrOAc), dimethylsulfoxide (DMSO) and dimethylformamide (DMF) were identified as solvents for use in the studies. The effect of triethylamine on the solubility was also evaluated.

[2] = Solubility (dissolution) of the new crystalline polymorph used as substrate; assay type: physicochemical; conditions: polymorph from THF, 2-methyl-THF or DCM with triethylamine, heat/cool crystallization
Experimental: Crystalline solids were identified as a new polymorph of 3-palmitoyl-amido-1,2-propanediol using THF, 2-methyl-THF or DCM with triethylamine during a heat/cool induced crystallization. The heat/cool crystallization included solubilizing 3-palmitoyl-amido-1,2-propanediol in a solution of THF, and heating and maintaining the composition at 50° C. overnight. For 2-methyl-THF or DCM, the solution with palmitoyl-amido-1,2-propanediol was heated to 60° C. overnight to produce a solution. After cooling the samples back to 30° C., crystalline solids formed as slurries in the solutions of THF, 2-methyl-THF and DCM.

[3] = tested on: template region of the RNA component of telomerase; conditions: cited from earlier work
telomerase = conditions: cited from earlier work
[4] = tested on: cancer cell lines and human tumors; conditions: multitude of different cancer cell lines and human tumors; cited from earlier work
myelofibrosis = conditions: cited from earlier work

effect of triethylamine on the solubility ([1]; in the screened solvents (THF, 2-methyl-THF, DCM, NMP, DMAc, toluene, tAmOH, iPrOAc, DMSO, DMF)) | solubility ([1]; solvent dimethylacetamide (DMAc)) | solubility ([1]; solvent dimethylformamide (DMF)) | solubility ([1]; solvent dimethylsulfoxide (DMSO)) | solubility of the polymorph [2] | Molecule | binding affinity [3] | telomerase activity (telomerase) | cell proliferation [4] | bone marrow fibrosis (myelofibrosis; patients with myelofibrosis in complete remission) | clinical remission (myelofibrosis; patients with myelofibrosis)
small effect | moderate solubility | moderate solubility | moderate solubility | faster solubility | CCCCCCCCCCCCCCCC(=O)NCC(O)CO (stereo not shown) [3-palmitoyl-amido-1,2-propanediol] | – | – | – | – | –
– | – | – | – | – | Imetelstat | high affinity | inhibits telomerase activity | effective against cell proliferation | reversal of bone marrow fibrosis | complete clinical remissions in certain patients
